What was measured:
Assay in all cases: drug sensitivity score (DSS) (DSS (dimensionless)); higher = more sensitive (stronger drug response)
JHOS2 = test system: JHOS2
In short: (§1)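 Ovarian cancer cell lines with shRNA induced by 100 ng/ml doxycycline for at least three days, along with patient-derived cultures, were seeded at 1 000 – 1 500 cells per well onto drugs pre-plated in 384-well plates at five concentrations over a 10,000-fold range and incubated for three days at 37 °C and 5.0 % CO2. CellTiter-Glo luminescence measured on a PHERAstar FS served as the viability readout, and each drug's dose-response curve was summarised as a drug sensitivity score following an earlier published method.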

Kuramochi = test system: Kuramochi
In short: as §1

OVSAHO = test system: OVSAHO
In short: as §1

FIMM-PDC7 = patient-derived ovarian cancer cells; details: genetic perturbation: none (patient-derived cell culture)
In short: as §1

FIMM-PDC5 = patient-derived ovarian cancer cells; details: genetic perturbation: none (patient-derived cell culture)
In short: as §1

FIMM-PDC6 = patient-derived ovarian cancer cells; details: genetic perturbation: none (patient-derived cell culture)
In short: as §1

FIMM-PDC1 = patient-derived ovarian cancer cells; details: genetic perturbation: none (patient-derived cell culture)
In short: as §1

FIMM-PDC3 = patient-derived ovarian cancer cells; details: genetic perturbation: none (patient-derived cell culture)
In short: as §1

FIMM-PDC4 = patient-derived ovarian cancer cells; details: genetic perturbation: none (patient-derived cell culture)
In short: as §1

[1] = genetic perturbation: DOX-induced PTK7 shRNA knockdown
[2] = genetic perturbation: DOX-induced control shRNA

| SMILES | drug sensitivity score (JHOS2; [1]) | drug sensitivity score (JHOS2; [2]) | drug sensitivity score (Kuramochi; [1]) | drug sensitivity score (Kuramochi; [2]) | drug sensitivity score (OVSAHO; [1]) | drug sensitivity score (OVSAHO; [2]) | drug sensitivity score (FIMM-PDC7) | drug sensitivity score (FIMM-PDC5) | drug sensitivity score (FIMM-PDC6) | drug sensitivity score (FIMM-PDC1) | drug sensitivity score (FIMM-PDC3) | drug sensitivity score (FIMM-PDC4) |
| --- | --- | --- | --- | --- | --- | --- | --- | --- | --- | --- | --- | --- |
| C[C@@H]1COC(Nc2ccc3ncnc(Nc4ccc(OCc5nccs5)c(Cl)c4)c3c2)=N1 [Varlitinib] | < 0 | < 0 | 0.05 | < 0 | 1.2 | < 0 | 6.9 | 12.6 | 5.2 | 1.1 | 8.6 | 9.5 |
| O=C(Nc1c[nH]nc1-c1nc2ccc(CN3CCOCC3)cc2[nH]1)NC1CC1 [AT9283] | 7.3 | 4.8 | 5.7 | 3.2 | 6.9 | 3.1 | < 0 | 6.1 | 3.1 | 2.9 | 4.4 | 8.2 |
| CCc1c2c(nc3ccc(O)cc13)-c1cc3c(c(=O)n1C2)COC(=O)[C@]3(O)CC [SN-38] | 26.1 | 22.5 | 21 | 8.6 | 21 | 16.4 | 21.3 | 29.7 | 28.9 | 23.5 | 26.6 | 19.2 |
| Cc1[nH]nc(C(F)(F)F)c1Cc1sc2c(c1C(=O)N1C[C@](C)(O)CO1)c(=O)n(C)c(=O)n2C(C)C [AZD3965] | < 0 | < 0 | 0.7 | 3.4 | 12.1 | < 0 | < 0 | < 0 | < 0 | 2.7 | < 0 | < 0 |
| CNC(=O)c1cccc(-c2ccc3c(N4CCOC[C@@H]4C)nc(N4CCOC[C@@H]4C)nc3n2)c1 [Vistusertib] | 6.1 | 10.5 | 9.7 | 12.4 | 12.6 | 14.3 | 18.6 | 23.9 | 13 | 8.75 | 7.8 | 14.9 |
| CC(C)(C)c1cc(NC(=O)Nc2ccc(Oc3ccnc4[nH]c(=O)cnc34)cc2F)n(-c2ccccc2)n1 | 1.8 | 8.3 | 2.15 | 9.4 | 3.9 | 9.1 | 0.3 | 0.3 | 0.4 | 3.9 | 4.2 | 0.7 |
| CNC(=O)CN1CCC(Oc2cc3c(Nc4cccc(Cl)c4F)ncnc3cc2OC)CC1 [Sapitinib] | < 0 | < 0 | 0.5 | < 0 | < 0 | < 0 | 10.1 | 16.5 | 11.4 | 0.6 | 8.8 | 16.3 |
| COc1ccc2[nH]cc(/C=C3\C(=O)Nc4ccc(NC(=O)CCN5CCCCC5)cc43)c2c1 | 7.8 | 8 | 7.75 | 5.2 | 7.4 | 7.5 | 6.7 | 14.3 | 5.8 | 6.15 | 11 | 9.7 |
| Cc1nc(Nc2n[nH]c3c2CN(C(=O)N[C@H](CN(C)C)c2ccccc2)C3(C)C)c2sccc2n1 | 16.6 | 13.6 | 12.3 | 8.6 | 11.1 | 15.3 | 11.8 | 20.8 | 14.8 | 9.6 | 14.3 | 16.6 |
| O=C(O)c1ccc2c(c1)nc(Nc1cccc(Cl)c1)c1ccncc12 [Silmitasertib] | 3.3 | 3.6 | 5.55 | 4.5 | 5.5 | 5.8 | 2.8 | 6.6 | < 0 | 3.2 | 4.8 | 1.5 |
| COc1cc(OC)c(/C=C/S(=O)(=O)Cc2ccc(OC)c(NCC(=O)O)c2)c(OC)c1 [Rigosertib] | 18.3 | 13 | 17.9 | 6.4 | 19.1 | 9.2 | 10.6 | 20 | 15.1 | 13.2 | 19 | 23.6 |
| O=C(O)C1(C(=O)O)CCC1.[NH2-].[NH2-].[Pt+2] [Carboplatin] | 7.6 | 5.3 | 4.4 | 4.7 | 8.7 | 2.7 | 2.4 | 3.8 | 2.8 | 2.55 | 16.2 | 3.2 |
| O=C(NOCCO)c1ccc2cncn2c1Nc1ccc(I)cc1F [GDC-0623] | < 0 | 10 | 1.4 | 1.5 | 0.4 | 1.5 | 9 | 6.9 | < 0 | < 0 | 1.8 | 7.4 |
| CNC(=O)c1ccccc1Nc1cc(Nc2ccc(N3CCOCC3)cc2OC)ncc1C(F)(F)F [VS-4718] | 5.9 | 3.7 | 10.8 | 4.8 | 5.7 | 9.9 | 5.4 | 8 | 10.3 | 5.4 | 3.8 | 9.2 |
| CCc1cnn2c(NCc3ccc[n+]([O-])c3)cc(N3CCCC[C@H]3CCO)nc12 [Dinaciclib] | 17.4 | 19.6 | 18.5 | 15.9 | 24.8 | 16.4 | 22.4 | 24.6 | 22.5 | 20.8 | 17.5 | 20.3 |
| Cc1c2oc3c(C)ccc(C(=O)N[C@@H]4C(=O)N[C@H](C(C)C)C(=O)N5CCC[C@H]5C(=O)N(C)CC(=O)N(C)[C@@H](C(C)C)C(=O)O[C@@H]4C)c3nc-2c(C(=O)N[C@@H]2C(=O)N[C@H](C(C)C)C(=O)N3CCC[C@H]3C(=O)N(C)CC(=O)N(C)[C@@H](C(C)C)C(=O)O[C@@H]2C)c(N)c1=O [Dactinomycin] | 21.1 | 23.4 | 23.3 | 19.9 | 23.1 | 18 | 26 | 25.2 | 22.1 | 23.6 | 26.5 | 23.1 |
| COc1ccc(C[C@H](NC(=O)[C@H](C)NC(=O)CN2CCOCC2)C(=O)N[C@@H](Cc2ccccc2)C(=O)C2(C)CO2)cc1 (stereo in doubt) [ONX-0914] | 18.3 | 15.5 | 14.6 | 16.4 | 17.6 | 12.3 | 20.3 | 17.4 | 23.8 | 19.9 | 22.7 | 17.6 |
| Cn1ncc(Cl)c1-c1cc(C(=O)N[C@H](CN)Cc2ccc(F)c(F)c2)oc1Cl [Uprosertib] | 0.6 | 0.2 | 1.55 | < 0 | < 0 | 2.5 | 6.5 | 8.9 | 6.8 | 1.9 | < 0 | 5 |
| CC(C)(C)C[C@@H]1N[C@@H](C(=O)N[C@H]2CC[C@H](O)CC2)[C@H](c2cccc(Cl)c2F)[C@]12C(=O)Nc1cc(Cl)ccc12 | 4.8 | 0.1 | 1.9 | 0.8 | 2.7 | 1.2 | 5 | 15.8 | 10.5 | < 0 | 4.9 | 8.1 |
| COc1ccc(-c2ccc3c(N4CCOC[C@@H]4C)nc(N4CCOC[C@@H]4C)nc3n2)cc1CO [AZD8055] | 11.8 | 17 | 15.9 | 16.8 | 20.7 | 19 | 25.7 | 29.2 | 21.8 | 13.9 | 12.9 | 21.2 |
| CNc1ncc2cc(-c3cc(NC(=O)NCCC(C)(C)C)c(F)cc3C)c(C)nc2n1 | 7.6 | 13.6 | 11.6 | 6.2 | 12.2 | 9.2 | 6.2 | 18.2 | 14.3 | 1.85 | 7.4 | 11.9 |
| C=CC(=O)N1CCC(Oc2cc3c(Nc4ccc(Cl)c(Cl)c4F)ncnc3cc2OC)CC1 [Poziotinib] | < 0 | < 0 | 0.95 | 1.4 | 2.6 | 0.3 | 16.1 | 27.2 | 21.2 | 3.5 | 16.4 | 22.9 |
| CCS(=O)(=O)Nc1ccc(Oc2ccc(F)cc2F)c(-c2cn(C)c(=O)c3[nH]ccc23)c1 [Mivebresib] | 18.2 | 16.6 | 25.8 | 14.7 | 19.7 | 23.8 | 16.3 | 21.9 | 15.3 | 13.8 | 15.3 | 12.2 |
| NS(=O)(=O)OC[C@@H]1C[C@@H](n2ccc3c(N[C@H]4CCc5ccccc54)ncnc32)C[C@@H]1O [Pevonedistat] | 16.2 | 12.4 | 6.65 | 2.6 | 3.7 | 6.5 | 12.2 | 5.7 | 7.1 | 3.75 | 5.2 | 9.4 |
| CCCCc1nc2cc(/C=C/C(=O)NO)ccc2n1CCN(CC)CC [Pracinostat] | 13.4 | 11.9 | 18 | 7.9 | 14.2 | 11.2 | 11.1 | 14.8 | 13.7 | 10.8 | 13.2 | 7.3 |
| CN(C)Cc1ccc(S(=O)(=O)n2ccc(/C=C/C(=O)NO)c2)cc1 [Resminostat] | 7.8 | 7.1 | 9.8 | 4.8 | 9.3 | 6.9 | 7.2 | 10 | 8.8 | 6.7 | 8.7 | 4.2 |
| Nc1nc2[nH]cc(CCc3ccc(C(=O)N[C@@H](CCC(=O)O)C(=O)O)cc3)c2c(=O)[nH]1 [Pemetrexed] | 0.4 | < 0 | 0.6 | 7.9 | < 0 | 1.5 | < 0 | < 0 | 1.5 | 2.05 | < 0 | < 0 |
